Test results: patent publication US20040043503A1, “Automatic mass spectrometry analytical system for the quantitative detection of organic toxicant exposure in the human body” (priority 2002, published 2004)

Assay: S-PMA concentration in urine samples from neonates and adults, by automatic mass spectrometry analytical system (on-line C18 cartridge, ESI-MS/MS)
Format: in vivo, human
Procedure: The collected urine samples were passed through 0.2 μm filtration membranes. An aliquot of 400 μL of filtered urine was firstly mixed with […] of 20% acetic acid and 100 μL of 1000 μg/L internal standard (IS), N-t-BOC-S-(p-methyl-benyl)-L-cysteine, with a known amount of S-PMA added when spiking experiments were performed, and diluted with 1400 μL of deionized water. From the total volume of 2000 μL, 200 μL of aliquot was injected into the analytical system (FIG. 1) for analysis. No other sample pretreatment procedures were performed or required other than the filtration described above. This can greatly simplify preparation procedures and save time.
Samples were loaded onto the C18 cartridge 2 (particle size 3 μm) by the pump 10 of autosampler 1 (as shown in FIG. 1) using 100% water at 0.6 mL/min, and were washed with 100% water for optimization time of 12 minutes (1.0, 2.0, 3.0, 4.0, 5.0, 6.0, 7.0, 8.0, 10.0, 12.0, 13.0, 14.0). This is to remove highly hydrophilic components of the urine samples to avoid interference with the subsequent detection results of spectrometry 4. The switching unit 3 (valve) was then activated to the Elute position and the sample was eluted with 1.0 mL/min 100% methanol provided by pump 10′ from cartridge 2 into the mass spectrometry 4 for analysis.
The mass spectrometry used in this invention is the API 365 Triple Quadrupole MS/MS.
Using the process described in Embodiment 1 above, this invention was used to establish the optimal experimental mode of quantitative detection of organic toxicant exposure in the human body using an automatic mass spectrometry analytical system. This Embodiment is to analyze the S-PMA concentration in urine samples collected from six neonates and six adults in the same hospital; the results are listed in Table 1. In the automatic mass spectrometry analytical system of this invention, each analysis took less than 18 minutes, and therefore 80 urine samples could be analyzed within 24 hours.

## CC(=O)NC(CSc1ccccc1)C(=O)O (centres unmarked) [S-PMA, S-phenyl mercapturic acid]
Adult 1, non-smoker
  S-PMA: 0.560 µg/L
Adult 2, non-smoker
  S-PMA: 1.268 µg/L
Adult 3, non-smoker
  S-PMA: 1.411 µg/L
Adult 4, non-smoker
  S-PMA: 4.196 µg/L
Adult 5, non-smoker
  S-PMA: 0.993 µg/L
Adult 6, non-smoker
  S-PMA: 1.255 µg/L
Neonate 1
  S-PMA: 0.249 µg/L
Neonate 2
  S-PMA: 0.345 µg/L
Neonate 3
  S-PMA: 0.322 µg/L
Neonate 4
  S-PMA: 0.365 µg/L
Neonate 5
  S-PMA: 0.356 µg/L
Neonate 6
  S-PMA: 0.348 µg/L
Six adults, non-smokers
  S-PMA Arithmetic Mean: 1.614 µg/L
Six neonates
  S-PMA Arithmetic Mean: 0.331 µg/L
